Paper PMC7918738, “Microtubule Destabilizing Sulfonamides as an Alternative to Taxane-Based Chemotherapy” (International Journal of Molecular Sciences, 2021)
Values after ≈ are worked out from the molar mass of the structure shown.

What was measured:
[1] = system: tubulin (microtubular protein isolated from calf brain); assay: Tubulin Polymerization Inhibition (TPI) assay, turbidity; type: biochemical; settings: 1.5 mg/mL microtubular protein; for TPI % 10 µM: compound at 10 µM
Protocol: The effect of all the synthesized compounds on the in vitro tubulin polymerization was evaluated at 10 µM. All the compounds that inhibited polymerization more than 30% were also assayed at 20 µM. IC50 values were calculated for those compounds inhibiting tubulin polymerization by at least 50% at 20 µM (Table 1 and Supplemental Figure S2).
Microtubular protein was isolated from calf brain according to the modified Shelanski method by two cycles of temperature-dependent assembly/disassembly and stored at −80 °C. Before each use, protein concentration was determined by the Bradford method taking BSA as standard.
Tubulin polymerization was monitored using a Helios α spectrophotometer by measuring the increase in turbidity at 450 nm, caused by a shift from 4 °C to 37 °C, which allows the in vitro microtubular protein to depolymerize and polymerize, respectively. The assay was carried out in quartz cuvettes containing 1.5 mg/mL microtubular protein and the ligand (except for control cuvette with only DMSO at the same concentration) in a mixture of 0.1 M MES buffer, 1 mM EGTA, 1 mM MgCl2, 1 mM β-ME, and 1.5 mM GTP at pH 6.7 (final volume 500 µL). Cuvettes were preincubated at 20 °C for 30 min, to allow ligand binding to tubulin, and subsequently cooled on ice for 10 min. Then, the experiment starts at 4 °C to establish the initial baseline. The assembly process was initiated by a temperature shift to 37 °C and the turbidity produced by tubulin polymerization can be measured by an absorbance increase. After reaching a stable plateau, the temperature was switched back to 4 °C to return to the initial absorption values (to confirm the reversible nature of the monitored process and to determine whether or not the microtubular tubular protein has stabilized). The difference in amplitude between the stable plateau and the initial baseline of the curves was taken as the degree of tubulin polymerization for each experiment. Comparison with control curves under identical conditions but without ligands yielded TPI as a percentage value. All compounds were tested at 10 µM concentration. Compounds that inhibited tubulin polymerization by at least 30% at 10 µM were tested at 20 µM. IC50 values were calculated for compounds that inhibit tubulin polymerization by more than 50% at 20 µM. Compounds were dissolved in DMSO, and the final solvent concentration never exceeded 4% (v/v), which has been reported not to interfere with the assembly process. All the measurements were carried out in at least two independent experiments using microtubular protein from different preparations.

[2] = system: HeLa (cervix epithelioid carcinoma); assay: Antiproliferative activity against HeLa (XTT colorimetric method); type: cell-based; settings: Homo sapiens, 72 h treatment
Protocol: The in vitro antiproliferative activity of MDS at 1 µM after 72 h treatments was evaluated by a colorimetric method against the human tumor cell lines HeLa (cervix epithelioid carcinoma) and MCF7 (breast adenocarcinoma). Compounds showing more than 40% inhibition at 1 µM in at least three independent assays were evaluated in a range of concentrations between 0.1 nM and 10 µM for the determination of half-maximal inhibitory concentrations (IC50) (Table 1). Paclitaxel, CA-4, and ABT-751 were used as references.
MCF7 (human breast carcinoma), SKOV-3 (human ovarian carcinoma), OVCAR-3 (human ovarian carcinoma), OVCAR-8 (human ovarian carcinoma), and HeLa (human cervical carcinoma) cell lines were cultured in Dulbecco’s Modified Eagle’s Medium (DMEM) (Gibco, Thermo Fischer Scientific) containing 10% (v/v) heat-inactivated fetal bovine serum (HIFBS) (Lonza-Cambrex, Karlskoga, Sweden), 2 mM L-glutamine (Lonza-Cambrex, Karlskoga, Sweden), 100 μg/mL streptomycin, and 100 IU/mL penicillin (Lonza-Cambrex) at 37 °C in humidified 95% air and 5% CO2. HT-29 (human colon carcinoma), IGROV-1 (human ovarian carcinoma), and A2780 (human ovarian carcinoma) cell lines were cultured in RPMI 1640 medium (Gibco, Thermo Fischer Scientific) supplemented with 10% HIFBS, 100 μg/mL streptomycin, and 100 IU/mL penicillin at 37 °C in humidified 95% air and 5% CO2 atmosphere. The presence of mycoplasma was routinely checked with MycoAlert kit (Lonza-Cambrex) and only mycoplasma-free cells were used in the experiments. Ovarian tumor cell lines were originally acquired from Dr Atanasio Pandiella from Centro de Investigación del Cáncer (CIC), Salamanca, Spain. HeLa, HT-29 and MCF7 tumor cell lines were provided by Dr Faustino Mollinedo from Centro de Investigaciones Biológicas Margarita Salas, Madrid, Spain.
MCF7, HeLa, and HT-29 cell proliferation, when treated with the corresponding compounds, were determined using the XTT (sodium 3’-[1(phenylaminocarbonyl)-3,4-tetrazolium]-bis(4-methoxy-6-nitro)-benzenesulfonic acid hydrate) cell proliferation kit (Roche Molecular Biochemicals, Mannheim, Germany). A freshly prepared mixture of XTT labeling reagent with 0.02% (v/v) PMS (N-methyl-dibenzopyrazine methyl sulfate) electron coupling reagent was added to cells (50 µL/well in 96-well plates, total volume of 160 µL/well). Cells were incubated under standard culture conditions for 4 h (MCF7 and HeLa) or 6 h (HT-29). The absorbance of the formazan product generated was measured at 450 nm using a multi-well plate reader. SKOV-3, OVCAR-3, OVCAR-8, IGROV-1, A-2780 cell proliferation, when treated with the corresponding compound, were determined using MTT (3-(4,5-dimethylthiazol-2-yl)-2,5-diphenyl-2H-tetrazolium bromide) (Sigma-Aldrich, St. Louis, MO, USA). MTT in Phosphate Buffer Saline (PBS) (5 mg/ml) was added to cells (110 µL/well in 24-well plates, total volume of 1110 µL/well). After 1 hour of incubation, the medium was aspirated, and formazan violet crystals were dissolved in dimethyl sulfoxide (DMSO) (500 µL/well). Absorbance was measured at 570 nm in a plate reader (Ultra Evolution, Tecan, Männedorf, Suiza). To determine cell viability, cells in exponential growth phase were seeded (100 µL/well in 96-well plates and 1000 µL/well in 24-well plates) with appropriate cell line concentration (1.5·10^4 cells/mL for MCF7 and HeLa, 3·10^4 cells/mL for HT-29, and 1·10^4 cells/mL for SKOV-3, OVCAR-3, OVCAR-8, IGROV-1, and A-2780) in complete RPMI 1640 or DMEM medium at 37°C and 5% CO2 atmosphere. After 24 h incubation, to allow cells to attach to the plates, all compounds were added at 1 µM concentration and the effect on the proliferation was evaluated 72 h post-treatment. Compounds showing antiproliferative effects at tested concentration were selected for IC50 calculation (50% inhibitory concentration with respect to the untreated controls) from 10^−5 to 10^−10 M concentration. Non-linear curves fitting the experimental data were carried out for each compound. […]

[3] = Aqueous solubility, saturation shake-flask method, UV absorbance; settings: phosphate buffer, pH 7, aqueous buffer, thermodynamic from solid

| IC50 [1] [nM] | IC50 [2] [nM] | solubility at 48 h [3] [µg/mL] | Structure (SMILES) | TPI % 10 µM [1] [%] |
| --- | --- | --- | --- | --- |
| > 20000 | > 1000 | 108 (≈ 206 µM) | COc1ccc(S(=O)(=O)N(c2cc(OC)c(OC)c(OC)c2)S(=O)(=O)c2ccc(OC)cc2)cc1 [Compound 1b] | 0 |
| > 20000 | 143 | 33 (≈ 84.1 µM) | COc1ccc(S(=O)(=O)N(CC#N)c2cc(OC)c(OC)c(OC)c2)cc1 [Compound 6] | 0 |
| > 20000 | 750 |  | COc1ccc(S(=O)(=O)N(Cc2ccccc2)c2cc(OC)c(OC)c(OC)c2)cc1 [Compound 9] | 21 |
| > 20000 | > 1000 |  | COc1ccc(S(=O)(=O)N(C(=O)OCc2ccccc2)c2cc(OC)c(OC)c(OC)c2)cc1 [Compound 10] | 11 |
| > 20000 | > 1000 | 88 (≈ 221 µM) | COc1ccc(S(=O)(=O)Nc2cc(OC)c(OC)c(OC)c2[N+](=O)[O-])cc1 [Compound 11] | 10 |
| > 20000 | > 1000 | 158 (≈ 429 µM) | COc1ccc(S(=O)(=O)Nc2cc(OC)c(OC)c(OC)c2N)cc1 [Compound 12] | 0 |
| > 20000 | > 1000 |  | COc1ccc(S(=O)(=O)N(C)c2cc(OC)c(OC)c(OC)c2N)cc1 [Compound 13] | 0 |
| > 20000 | > 1000 |  | COc1ccc(S(=O)(=O)Nc2cc(OC)c(OC)c(OC)c2NCN(c2cc(OC)c(OC)c(OC)c2N)S(=O)(=O)c2ccc(OC)cc2)cc1 [Compound 14] | 0 |
| > 20000 | > 1000 | 230 (≈ 560 µM) | COc1ccc(S(=O)(=O)Nc2cc(OC)c(OC)c(OC)c2NC(C)=O)cc1 [Compound 15] | 0 |
| > 20000 | > 1000 |  | COc1ccc(S(=O)(=O)Nc2cc(OC)c(OC)c(OC)c2NC=O)cc1 [Compound 17] | 4 |
| > 20000 | > 1000 |  | COc1ccc(S(=O)(=O)Nc2cc(OC)c(OC)c(OC)c2N(C)C)cc1 [Compound 18] | 0 |
| > 20000 | > 1000 |  | COc1ccc(S(=O)(=O)N(C)c2cc(OC)c(OC)c(OC)c2N(C)C)cc1 [Compound 19] | 0 |
| > 20000 | > 1000 | 87 (≈ 201 µM) | COc1ccc(S(=O)(=O)Nc2cc(OC)c(OC)c(OC)c2Br)cc1 [Compound 20] | 0 |
| > 20000 | > 1000 | 357 (≈ 679 µM) | COc1ccc(S(=O)(=O)Nc2cc(OC)c(OC)c(OC)c2NC(=O)CNC(=O)OC(C)(C)C)cc1 [Compound 21] | 0 |
| > 20000 | > 1000 | 41 (≈ 108 µM) | COc1ccc(S(=O)(=O)n2nnc3c(OC)c(OC)c(OC)cc32)cc1 [Compound 23] | 0 |
| > 20000 | > 1000 |  | COc1ccc(S(=O)(=O)n2cnc3c(OC)c(OC)c(OC)cc32)cc1 [Compound 24] | 0 |
| > 20000 | > 1000 | 25 (≈ 70.9 µM) | COc1cc(N(C)S(=O)(=O)c2ccc(N)cc2)cc(OC)c1OC [Compound 27] | 0 |
| > 20000 | 230 | 15 (≈ 40.9 µM) | COc1cc(NS(=O)(=O)c2ccc(N(C)C)cc2)cc(OC)c1OC [Compound 28] | 0 |
| > 20000 | 66 | 6 (≈ 15.2 µM) | CCN(c1cc(OC)c(OC)c(OC)c1)S(=O)(=O)c1ccc(N(C)C)cc1 [Compound 30] | 45 |
| 14000 | 183 | 18 (≈ 44.1 µM) | COc1cc(N(C(C)=O)S(=O)(=O)c2ccc(N(C)C)cc2)cc(OC)c1OC [Compound 31] | 38 |
| > 20000 | 99 |  | CCOC(=O)CN(c1cc(OC)c(OC)c(OC)c1)S(=O)(=O)c1ccc(N(C)C)cc1 [Compound 33] | 14 |
| 5300 | 330 |  | COc1cc(N(Cc2ccccc2)S(=O)(=O)c2ccc(N(C)C)cc2)cc(OC)c1OC [Compound 35a] | 72 |
| > 20000 | > 1000 |  | COc1cc(N(C(=O)OCc2ccccc2)S(=O)(=O)c2ccc(N(C)C)cc2)cc(OC)c1OC [Compound 35b] | 0 |
| > 20000 | > 1000 |  | COc1ccc(S(=O)(=O)Nc2cc(OC)c(OC)c(OC)c2)cc1[N+](=O)[O-] [Compound 40] | 0 |
| > 20000 | 210 |  | CCOC(=O)CNc1cc(S(=O)(=O)N(C)c2cc(OC)c(OC)c(OC)c2)ccc1OC [Compound 46] | 13 |
| > 20000 | > 1000 |  | CCOC(=O)CNc1cc(S(=O)(=O)N(CC(=O)OCC)c2cc(OC)c(OC)c(OC)c2)ccc1OC [Compound 47] | 0 |
| > 20000 | 440 |  | CNc1cc(S(=O)(=O)N(C)c2cc(OC)c(OC)c(OC)c2)ccc1OC [Compound 48a] | 2 |

| Structure (SMILES) | IC50 [1] [nM] | IC50 [2] [nM] | solubility at 48 h [3] [µg/mL] | TPI % 10 µM [1] [%] |
| --- | --- | --- | --- | --- |
| COc1ccc(/C=C\c2cc(OC)c(OC)c(OC)c2)cc1O [Combretastatin A-4, reference compound] | […] | 2 |  | […] |
| COc1ccc(S(=O)(=O)N(CCBr)c2cc(OC)c(OC)c(OC)c2)cc1 [Compound 4] | > 20000 | 94 |  | 30 |
| COc1ccc(S(=O)(=O)N(C)c2cc(OC)c(OC)c(OC)c2)cc1N(C)C [Compound 48b] | > 20000 | > 1000 |  | 0 |
